Where “and” joins values, the source holds several entries; their conditions need not be identical. Equal values may be shown once. Read-outs that look alike come from different tables or passages of the source.
Test system: Botryotinia fuckeliana (Botrytis cinerea)
Assay: Botryotinia fuckeliana (Botrytis cinerea) / liquid culture
Format: cell-based
Protocol: Mycelia fragments or conidia suspensions of a fungus, prepared either freshly from liquid cultures of the fungus or from cryogenic storage, were directly mixed into nutrient broth. DMSO solutions of the test compound (max. 10 mg/ml) was diluted with 0.025% Tween20 by factor 50 and 10 μl of this solution was pipetted into a microtiter plate (96-well format). […] The test plates were incubated in the dark at 24° C. and 96% rh. The inhibition of fungal growth was determined photometrically and visually after 2-4 days, depending on the pathosystem, and percent antifungal activity relative to the untreated check was calculated.
Conidia of the fungus from cryogenic storage were directly mixed into nutrient broth (Vogels broth). After placing a (DMSO) solution of test compound into a microtiter plate (96-well format), the nutrient broth containing the fungal spores was added.

`CON(C(=O)c1cn(C)nc1C(F)F)C(C)Cc1c(Cl)cc(Cl)cc1Cl` (stereo not drawn) [Compound 1.001, 3-(difluoromethyl)-N-methoxy-1-methyl-N-[1-methyl-2-(2,4,6-trichlorophenyl)ethyl]pyrazole-4-carboxamide] was tested, and the observed % activity (1.001 0.0031 ppm) was 76%, the observed % activity (1.001 0.0063 ppm) was 69% and 63% and 85% and 64% and 88% and 74% and 87% and the observed % activity (1.001 0.0125 ppm) was 84% and 88%. It also gave an inhibition at 0.0016 ppm (Botrytis cinerea, 1.001 0.0016 ppm (Table B55), read-out: observed % activity) of 38%, an inhibition at 0.0031 ppm (Botrytis cinerea, 1.001 0.0031 ppm (Table B54), read-out: observed % activity) of 75% and an inhibition at 0.0031 ppm (Botrytis cinerea, 1.001 0.0031 ppm (Table B55), read-out: observed % activity) of 53%. For the same compound, the inhibition at 0.0063 ppm (Botrytis cinerea, 1.001 0.0063 ppm (Table B54), read-out: observed % activity) was 89%, the inhibition at 0.0063 ppm (Botrytis cinerea, 1.001 0.0063 ppm (Table B55), read-out: observed % activity) was 66% and the inhibition at 0.0125 ppm (Botrytis cinerea, 1.001 0.0125 ppm, read-out: observed % activity) was 83%.

— patent publication US10588315B2, “Fungicidal compositions” (Syngenta Participations AG, priority 2012, dated 2020)
